Data published in publication PMC6242907, “Molecular basis of maintaining an oxidizing environment under anaerobiosis by soluble fumarate reductase” (Nature Communications, 2018).
pKd: −log10 of the molar value.

Key:
Ero1 = target: T1, Ero1 (Saccharomyces cerevisiae, UniProt Q03103); experiment: free flavin reduction at […] nm; assay type: biochemical; conditions: free FAD as electron acceptor; DTT and thioredoxin as reductant, airtight, oxygen-depleted
T1 construct: residues 56-424, His6-MBP fusion from E. coli Origami B(DE3), H6-MBP cleaved off by TEV protease; FAD-containing
T1 sequence (Q03103 56-424): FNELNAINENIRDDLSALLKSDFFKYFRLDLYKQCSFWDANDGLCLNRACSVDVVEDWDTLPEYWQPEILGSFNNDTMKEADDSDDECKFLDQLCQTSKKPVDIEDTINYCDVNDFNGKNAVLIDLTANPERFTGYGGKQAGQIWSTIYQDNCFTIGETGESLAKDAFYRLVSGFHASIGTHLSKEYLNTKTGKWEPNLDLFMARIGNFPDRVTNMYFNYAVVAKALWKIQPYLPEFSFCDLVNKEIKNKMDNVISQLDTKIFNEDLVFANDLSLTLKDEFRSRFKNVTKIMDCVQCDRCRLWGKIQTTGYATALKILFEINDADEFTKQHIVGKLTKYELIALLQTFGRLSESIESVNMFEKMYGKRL

Osm1 [1] = target: T2, Osm1 (Saccharomyces cerevisiae, UniProt P21375); experiment: X-ray crystal structure, […] Å; assay type: binding
T2 construct: residues 32-501, N-terminal His6 tag and thrombin site in pET28a, E. coli BL21(DE3); tag removed by trypsin for crystals
T2 sequence (P21375 32-501): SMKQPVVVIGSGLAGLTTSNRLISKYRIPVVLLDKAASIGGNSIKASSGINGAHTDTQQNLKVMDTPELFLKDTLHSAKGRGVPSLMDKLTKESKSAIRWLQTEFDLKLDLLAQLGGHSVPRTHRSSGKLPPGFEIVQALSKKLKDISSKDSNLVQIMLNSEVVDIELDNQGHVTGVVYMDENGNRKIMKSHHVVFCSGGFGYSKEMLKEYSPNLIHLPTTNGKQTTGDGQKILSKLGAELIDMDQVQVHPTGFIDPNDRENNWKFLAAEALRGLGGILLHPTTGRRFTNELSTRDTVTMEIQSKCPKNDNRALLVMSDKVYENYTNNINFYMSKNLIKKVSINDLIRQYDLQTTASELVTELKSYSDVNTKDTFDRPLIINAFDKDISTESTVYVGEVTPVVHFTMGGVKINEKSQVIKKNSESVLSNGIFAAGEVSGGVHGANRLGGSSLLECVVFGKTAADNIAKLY

Osm1 [2] = target: T3, Osm1 (Saccharomyces cerevisiae, UniProt P21375, S78K/P162R); experiment: isothermal titration calorimetry; conditions: second FAD-binding pocket; 1 mM FAD injected into 28 µM double mutant
T3 construct: residues 32-501, N-terminal His6 tag and thrombin site in pET28a, E. coli BL21(DE3); tag removed by trypsin for crystals
T3 sequence (P21375 32-501 S78K/P162R): as the sequence (P21375 32-501) above, with S47K, P131R counted along it

Osm1 [3] = target: T2, Osm1; experiment: isothermal titration calorimetry; assay type: binding
Source text: isothermal titration calorimetry on Osm1 | Injection of FAD into the ITC sample cell containing holo-Osm1 created an exothermic response

Row | pKd (Osm1 [3]) | Compound | free flavin reduction at 450 nm (Ero1) | X-ray crystal structure, 1.8 Å (Osm1 [1]; first (cofactor) site, non-covalent, complex with fumarate) | no detectable thermal response (Osm1 [2]) | X-ray crystal structure, 1.8 Å (Osm1 [1]; active site next to the isoalloxazine ring of cofactor FAD)
1 | 5.31 | Cc1cc2nc3c(=O)[nH]c(=O)nc-3n(C[C@H](O)[C@H](O)[C@H](O)COP(=O)(O)OP(=O)(O)OC[C@H]3O[C@@H](n4cnc5c(N)ncnc54)[C@H](O)[C@@H]3O)c2cc1C [FAD] | Ero1 could only use free FAD, but not FMN or riboflavin, under oxygen-depleted conditions | residues, including A45, K66, N73, S74, S79, G80, V194, D260, E467, S482, and L483 | injection of FAD into the S78K/P162R mutant did not show any detectable thermal response | –
2 | – | O=C(O)/C=C/C(=O)O [fumarate] | – | – | – | S78, S79, H281, R326, H435, R477, and G480 from Osm1 are involved in the binding of fumarate
